Where two headings read alike, the source gives them in different places.
What was measured:
[1] = test system: Mu50; experiment: IC50 of inhibition of staphyloxanthin synthesis in drug-resistant strain; type: cell-based; details: Staphylococcus aureus
Protocol: (§1) Selection of compound concentrations: based on the preliminary screening results, the ability of each compound to inhibit staphyloxanthin synthesis was determined. […] According to the assay results, 10 different concentration gradients were designed for each compound, such that the ability to inhibit staphyloxanthin synthesis comprised substantially from 0% to 100%.
(§2) Culture of the strains: single colonies of strain Newman and crtN mutant strain were picked from TSA plates, added into test tubes containing 4 mL of sterile TSB medium, and cultured at 37° C. and 250 rpm for 12 h for later use.
(§3) The relative level of staphyloxanthin synthesis at each concentration of the compound of the invention=A450 (sample)/A450 (negative control)*100%. With the molar concentration of the compound as the abscissa and the relative level of staphyloxanthin synthesis as the ordinate, a curve fitting of inhibitor concentration-inhibition rate (log(inhibitor) vs response) was performed in Graphpad prism 5.0 software, and the IC50 of the compound for inhibiting staphyloxanthin synthesis was calculated by software based on the fitting results.
(§4) In addition to replacement of S. aureus strain Newman with USA 400 MW 2, USA 300 LAC and Mu 50, the rest of the method is the same as in Examples 58-59.
(§5) Compound IA-25 was used as a representative compound. In addition to replacement of S aureus strain Newman with other MRSA strains as described in Table 3, the rest of the method is the same as in Examples 61-62.

[2] = test system: USA400 MW2; experiment: as above; type: cell-based; details: Staphylococcus aureus
Protocol: as §1, §2, §3, §4, §5

[3] = test system: USA300 LAC; experiment: as above; type: cell-based; details: Staphylococcus aureus
Protocol: as §1, §2, §3, §4, §5

[4] = molecular target: CYP enzyme subtype 2C8 (Homo sapiens, UniProt P10632); experiment: Inhibition assay on hepatic CYP450 enzyme
[5] = test system: S. aureus; experiment: Human whole blood killing assay; type: cell-based, Staphylococcus aureus; details: four strains, fresh human blood, 6 h
Source text: Compound IA-25 was used as a representative compound. The main object of the invention was to impair the ability of bacteria to resist immunological killing in vivo by inhibiting staphyloxanthins synthesis.
The calculated survival rate of bacteria after blood killing=(count of bacteria grown in sample after blood killing×dilution factor)/(count of bacteria grown in control group×dilution factor)×100%.

[6] = molecular target: CYP enzyme subtype 1A2 (Homo sapiens, UniProt P05177); experiment: Inhibition assay on hepatic CYP450 enzyme; type: in vitro ADME; details: CYP 1A2; read-out: Half inhibitory concentration (IC50)
[7] = molecular target: CYP enzyme subtype 2C19 (Homo sapiens, UniProt P33261); experiment: Inhibition assay on hepatic CYP450 enzyme; type: in vitro ADME; details: CYP 2C19; read-out: Half inhibitory concentration (IC50)
[8] = in vivo
[9] = in vitro; details: mouse, microsomes
[10] = rat, in vivo, 1000 mg/kg
Source text: Thirty rats weighing 180-220 g, half male and half female, were picked out and randomly divided into three groups.

[11] = test system: Staphylococcus aureus subsp. aureus str. strain Newman; experiment: Preliminary screening assay of inhibition of staphyloxanthin synthesis; type: cell-based
Protocol: Strains used for assay: freshly activated wild-type Staphylococcus aureus subsp. aureus str. strain Newman and its homologous mutant strain having crtN insertion (without staphyloxanthin synthesis).
Medium for assay: Tryptone Soy broth (TSB), a product from Oxid Corporation, the United Kingdom, which was formulated with distilled water, sterilized at 121° C. for 15 min for later use.
Method of Preliminary Screening Assay:
(1) Preparation of compound: the compound of the invention was dissolved in dimethyl sulfoxide (DMSO) to prepare a stock solution having a concentration of 10 mM; 400 μL of DMSO was added to 100 μL of the stock solution to get a dilution with a concentration of 2 mM; 250 μL (2 mM) of the dilution was taken after mixing, and an equal amount of DMSO was added thereto for 2-fold dilution to get a solution with a concentration of […] for later use.
(2) Culture of the strain: single colonies of strain Newman were picked from TSA plates into a test tube containing 4 mL of sterile TSB medium, and cultured at 37° C. and 250 rpm for 12 h for later use.

Sequence of CYP enzyme subtype 1A2 (P05177 whole entry): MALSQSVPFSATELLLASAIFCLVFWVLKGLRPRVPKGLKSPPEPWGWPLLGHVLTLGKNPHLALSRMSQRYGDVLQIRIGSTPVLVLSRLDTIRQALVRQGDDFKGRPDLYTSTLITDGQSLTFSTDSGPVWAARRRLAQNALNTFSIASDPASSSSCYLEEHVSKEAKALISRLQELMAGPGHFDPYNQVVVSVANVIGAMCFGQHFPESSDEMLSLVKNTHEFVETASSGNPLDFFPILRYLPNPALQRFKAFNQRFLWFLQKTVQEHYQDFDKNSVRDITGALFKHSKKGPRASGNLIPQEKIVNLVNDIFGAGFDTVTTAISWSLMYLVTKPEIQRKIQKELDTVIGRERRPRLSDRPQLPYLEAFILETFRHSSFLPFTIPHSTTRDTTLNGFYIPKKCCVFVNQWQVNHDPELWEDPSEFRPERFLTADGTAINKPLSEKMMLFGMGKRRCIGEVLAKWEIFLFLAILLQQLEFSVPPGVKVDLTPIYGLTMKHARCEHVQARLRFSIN
Sequence of CYP enzyme subtype 2C19 (P33261 whole entry): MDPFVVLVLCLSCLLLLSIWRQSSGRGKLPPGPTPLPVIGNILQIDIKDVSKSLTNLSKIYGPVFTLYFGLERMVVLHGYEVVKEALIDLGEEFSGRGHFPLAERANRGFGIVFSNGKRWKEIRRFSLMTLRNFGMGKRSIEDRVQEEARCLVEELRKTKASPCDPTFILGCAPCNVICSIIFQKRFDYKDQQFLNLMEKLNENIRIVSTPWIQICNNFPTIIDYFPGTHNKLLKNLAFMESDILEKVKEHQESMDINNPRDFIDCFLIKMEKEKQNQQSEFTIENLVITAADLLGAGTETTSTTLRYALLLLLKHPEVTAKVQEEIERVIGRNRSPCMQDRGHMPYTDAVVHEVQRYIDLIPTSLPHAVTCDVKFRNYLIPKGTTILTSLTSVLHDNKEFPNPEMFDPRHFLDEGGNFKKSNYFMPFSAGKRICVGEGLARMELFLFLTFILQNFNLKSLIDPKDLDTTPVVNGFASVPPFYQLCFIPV
Sequence of CYP enzyme subtype 2C8 (P10632 whole entry): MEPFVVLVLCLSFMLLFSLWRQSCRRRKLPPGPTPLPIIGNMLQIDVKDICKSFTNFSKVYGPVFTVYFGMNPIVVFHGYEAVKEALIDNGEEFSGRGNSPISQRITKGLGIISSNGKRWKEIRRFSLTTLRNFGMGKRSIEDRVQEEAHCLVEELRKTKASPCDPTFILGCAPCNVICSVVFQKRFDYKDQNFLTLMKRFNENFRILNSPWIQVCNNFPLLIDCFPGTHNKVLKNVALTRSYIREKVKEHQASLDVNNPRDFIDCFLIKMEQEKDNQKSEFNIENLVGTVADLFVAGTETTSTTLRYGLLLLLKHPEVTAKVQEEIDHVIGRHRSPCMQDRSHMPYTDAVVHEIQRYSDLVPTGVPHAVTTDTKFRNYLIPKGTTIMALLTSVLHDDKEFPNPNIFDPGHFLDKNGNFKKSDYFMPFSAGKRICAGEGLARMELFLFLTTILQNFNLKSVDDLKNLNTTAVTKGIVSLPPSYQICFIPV

`CN(C/C=C/c1ccc(-c2ccccc2)cc1)Cc1coc2ccccc12` [Compound IA-25, (E)-N-methyl-N-[(benzofuran-3-yl)methylene]-3-(4-phenylphenyl)-prop-2-en-1-amine] showed an IC50 ([1]; read-out: IC50, staphyloxanthin synthesis in drug-resistant strain) of 0.8 ± 1.4 nM, an IC50 ([1]; read-out: Inhibitory activity on staphyloxanthin IC50) of 0.8 ± 0.01 nM and an IC50 ([2]; USA400, read-out: IC50, staphyloxanthin synthesis in drug-resistant strain) of 1.9 ± 0.5 nM. The IC50 ([2]; USA400, read-out: Inhibitory activity on staphyloxanthin IC50) was 1.9 ± 1.2 nM, the IC50 ([3]; USA300, read-out: IC50, staphyloxanthin synthesis in drug-resistant strain) was 7.9 ± 1.2 nM and the IC50 ([3]; USA300, read-out: Inhibitory activity on staphyloxanthin IC50) was 7.9 ± 0.2 nM. For the same molecule, the IC50 [4] was greater than 10000 nM, the “bacterial survival rate after human blood killing” value [5] was “less than 3%” and the IC50 [6] was 5690 nM. For the same molecule, the IC50 [7] was greater than 10000 nM, the bioavailability [8] was 15 to 45% and the half-life [9] was 0.833 to 2 h. The “abnormality in the dissected organs” value [10] was “there was not any abnormality in the dissected organs”, the “death or poor behavior events” value [10] was “did not result in any death or poor behavior events in the rats” and the “colors in final photograph of inhibition of staphyloxanthin synthesis” value ([11]; 50, 10, 5, 2.5, 1.25, 0.625, 0.3125 and 0 μM from left to right) was “white to yellow from left to right gradually”. For the same molecule, the “concentration at which staphyloxanthin synthesis is significantly inhibited” value ([11]; strain Newman, 24 h culture, lowest concentration tested) was no more than 0.3125 µM.
